Experimental data taken from patent US20210101928A1 (Sage Therapeutics, Inc., priority 2017, published 2021).

molecular target: GABAA receptor ([35S]-TBPS binding, rat brain cortical membranes); test: Steroid inhibition of [35S]-TBPS binding; settings: Table II-2, 3 nM [35S]-TBPS, in the presence of 5 mM GABA, read-out: TBPS IC50
Description: [^35S]-t-Butylbicyclophosphorothionate (TBPS) binding assays using rat brain cortical membranes in the presence of 5 mM GABA has been described (Gee et al, J. Pharmacol. Exp. Ther. 1987, 241, 346-353; Hawkinson et al, Mol. Pharmacol. 1994, 46, 977-985; Lewin, A. H et al., Mol. Pharmacol. 1989, 35, 189-194).
Briefly, cortices are rapidly removed following decapitation of carbon dioxide-anesthetized Sprague-Dawley rats (200-250 g). The cortices are homogenized in 10 volumes of ice-cold 0.32 M sucrose using a glass/teflon homogenizer and centrifuged at 1500×g for 10 min at 4° C. The resultant supernatants are centrifuged at 10,000×g for 20 min at 4° C. to obtain the P2 pellets. The P2 pellets are resuspended in 200 mM NaCl/50 mM Na—K phosphate pH 7.4 buffer and centrifuged at 10,000×g for 10 min at 4° C. This washing procedure is repeated twice and the pellets are resuspended in 10 volumes of buffer. Aliquots ([…]) of the membrane suspensions are incubated with 3 nM [^35S]-TBPS and […] aliquots of test drug dissolved in dimethyl sulfoxide (DMSO) (final 0.5%) in the presence of 5 mM GABA. The incubation is brought to a final volume of 1.0 mL with buffer. Nonspecific binding is determined in the presence of […] and ranged from 15 to 25%. Following a 90 min incubation at room temp, the assays are terminated by filtration through glass fiber filters (Schleicher and Schuell No. 32) using a cell harvester (Brandel) and rinsed three times with ice-cold buffer. Filter bound radioactivity is measured by liquid scintillation spectrometry. Non-linear curve fitting of the overall data for each drug averaged for each concentration is done using Prism (GraphPad). […] The concentration of test compound producing 50% inhibition (IC50) of specific binding and the maximal extent of inhibition (Imax) are determined for the individual experiments with the same model used for the overall data and then the means±SEM.s of the individual experiments are calculated.
Various compounds are or can be screened to determine their potential as modulators of [^35S]-TBPS binding in vitro. These assays are or can be performed in accordance with the above.

First: CCOC[C@@]1(O)CC[C@@]2(CC)[C@H](CC[C@H]3[C@@H]4CC[C@H](C(=O)N5CCCC[C@@H]5c5ccc(F)cc5)[C@@]4(C)CC[C@@H]32)C1 [II-50, ((3R,5R,8S,9S,10S,13S,14S,17S)-3-(ethoxymethyl)-10-ethyl-3-hydroxy-13-methylhexadecahydro-1H-cyclopenta[a]phenanthren-17-yl)((R)-2-(4-fluorophenyl)piperidin-1-yl)methanone]
Second: CCOC[C@@]1(O)CC[C@@]2(CC)[C@H](CC[C@H]3[C@@H]4CC[C@H](C(=O)N5CCCC[C@H]5c5ccc(F)cc5)[C@@]4(C)CC[C@@H]32)C1 [II-51, ((3R,5R,8S,9S,10S,13S,14S,17S)-3-(ethoxymethyl)-10-ethyl-3-hydroxy-13-methylhexadecahydro-1H-cyclopenta[a]phenanthren-17-yl)((S)-2-(4-fluorophenyl)piperidine-1-yl)methanone]
The IC50 of the first is higher: 100 to 1000 nM for the first, 10 to 100 nM for the second. The second is the more potent here.

Compared with `CCOC[C@@]1(O)CC[C@@]2(CC)[C@@H](CC[C@H]3[C@@H]4CC[C@H](C(=O)Nc5ccc(C#N)cc5C)[C@@]4(C)CC[C@@H]32)C1` [II-63], `CC[C@]12CC[C@](O)(COC)C[C@@H]1CC[C@H]1[C@@H]3CC[C@H](C(=O)Nc4ccc(C#N)cc4C)[C@@]3(C)CC[C@@H]12` [II-E6, (3R,5S,8S,9S,10S,13S,14S,17S)-N-(4-cyano-2-methylphenyl)-10-ethyl-3-hydroxy-3-(methoxymethyl)-13-methylhexadecahydro-1H-cyclopenta[a]phenanthrene-17-carboxamide] is lower in IC50: 10 to 100 nM for the first, less than 10 nM for the second. The second is the more potent here.

`CCOC[C@@]1(O)CC[C@@]2(CC)[C@H](CC[C@H]3[C@@H]4CC[C@H](C(=O)Cn5nccn5)[C@@]4(C)CC[C@@H]32)C1` [II-75, 1-((3R,5R,8S,9S,10S,13S,14S,17S)-3-(ethoxymethyl)-10-ethyl-3-hydroxy-13-methylhexadecahydro-1H-cyclopenta[a]phenanthren-17-yl)-2-(2H-1,2,3-triazole-2-yl)ethan-1-one] and `CC[C@]12CC[C@@](C)(O)C[C@@H]1CC[C@H]1[C@@H]3CC[C@H](C(=O)Cn4nccn4)[C@@]3(C)CC[C@@H]12` [II-A8a] fall in the same range of IC50: 10 to 100 nM for the first, 10 to 100 nM for the second.

Compared with `CCOC[C@@]1(O)CC[C@@]2(CC)[C@H](CC[C@H]3[C@@H]4CC[C@H](C(=O)Cn5ccnn5)[C@@]4(C)CC[C@@H]32)C1` [II-76, 1-((3R,5R,8S,9S,10S,13S,14S,17S)-3-(ethoxymethyl)-10-ethyl-3-hydroxy-13-methylhexadecahydro-1H-cyclopenta[a]phenanthren-17-yl)-2-(1H-1,2,3-triazol-1-yl)ethan-1-one], `CC[C@]12CC[C@@](C)(O)C[C@@H]1CC[C@H]1[C@@H]3CC[C@H](C(=O)Cn4ccnn4)[C@@]3(C)CC[C@@H]12` [II-A8] is lower in IC50: 10 to 100 nM for the first, less than 10 nM for the second. The second is the more potent here.

First: CCOC[C@@]1(O)CC[C@@]2(CC)[C@@H](CC[C@H]3[C@@H]4CC[C@H](C(=O)Cn5nnnc5C)[C@@]4(C)CC[C@@H]32)C1 [II-78, 1-((3R,5S,8S,9S,10S,13S,14S,17S)-3-(ethoxymethyl)-10-ethyl-3-hydroxy-13-methylhexadecahydro-1H-cyclopenta[a]phenanthren-17-yl)-2-(5-methyl-1H-tetrazol-1-yl)ethan-1-one]
Second: CCOC[C@@]1(O)CC[C@@]2(CC)[C@H](CC[C@H]3[C@@H]4CC[C@H](C(C)=O)[C@@]4(C)CC[C@@H]32)C1 [II-C4, 1-((3R,5R,8S,9S,10S,13S,14S,17S)-3-(ethoxymethyl)-10-ethyl-3-hydroxy-13-methylhexadecahydro-1H-cyclopenta[a]phenanthren-17-yl)ethan-1-one]
The IC50 of the first is higher: 100 to 1000 nM for the first, 10 to 100 nM for the second.

Compared with `CCOC[C@@]1(O)CC[C@@]2(CC)[C@H](CC[C@H]3[C@@H]4CC[C@H](C(=O)Cn5ccc(C#N)n5)[C@@]4(C)CC[C@@H]32)C1` [II-79, 1-(2-((3R,5R,8S,9S,10S,13S,14S,17S)-3-(ethoxymethyl)-10-ethyl-3-hydroxy-13-methylhexadecahydro-1H-cyclopenta[a]phenanthren-17-yl)-2-oxoethyl)-1H-pyrazole-3-carbonitrile], `CCOC[C@@]1(O)CC[C@@]2(CC)[C@@H](CC[C@H]3[C@@H]4CC[C@H](C(=O)Cn5ccc(C#N)n5)[C@@]4(C)CC[C@@H]32)C1` [II-D13, 1-(2-((3R,5S,8S,9S,10S,13S,14S,17S)-3-(ethoxymethyl)-10-ethyl-3-hydroxy-13-methylhexadecahydro-1H-cyclopenta[a]phenanthren-17-yl)-2-oxoethyl)-1H-pyrazole-3-carbonitrile] is higher in IC50: less than 10 nM for the first, 10 to 100 nM for the second.

`C=C[C@]12CC[C@@](C)(O)C[C@@H]1CC[C@H]1[C@@H]3CC[C@H](C(C)=O)[C@@]3(C)CC[C@@H]12` [II-A4, 1((3R,5S,8S,9S,10R,13S,14S,17S)-3-hydroxy-3,13-dimethyl-10-vinylhexadecahydro-1H-cyclopenta[a]phenanthren-17-yl)ethan-1-one] and `CC[C@]12CC[C@@](C)(O)C[C@@H]1CC[C@H]1[C@@H]3CC[C@H](C(C)=O)[C@@]3(C)CC[C@@H]12` [II-A5, 1-((3R,5S,8S,9S,10S,13S,14S,17S)-10-ethyl-3-hydroxy-3,13-dimethylhexadecahydro-1H-cyclopenta [a]phenanthren-17-yl)ethan-1-one] fall in the same range of IC50: 10 to 100 nM for the first, 10 to 100 nM for the second.

`CC[C@]12CC[C@@](C)(O)C[C@@H]1CC[C@H]1[C@@H]3CC[C@H](C(=O)Cn4cccn4)[C@@]3(C)CC[C@@H]12` [II-A7, 1-((3R,5S,8S,9S,10S,13S,14S,17S)-10-ethyl-3-hydroxy-3,13-dimethylhexadecahydro-1H-cyclopenta [a]phenanthren-17-yl)-2-(1H-pyrazol-1-yl)ethan-1-one] and `CC[C@]12CC[C@@](C)(O)C[C@@H]1CC[C@H]1[C@@H]3CC[C@H](C(=O)CO)[C@@]3(C)CC[C@@H]12` [II-A11, 1-((3R,5S,8S,9S,10S,13S,14S,17S)-10-ethyl-3-hydroxy-3,13-dimethylhexadecahydro-1H-cyclopenta[a]phenanthren-17-yl)-2-hydroxyethan-1-one] fall in the same range of IC50: 10 to 100 nM for the first, 10 to 100 nM for the second.

`CC[C@]12CC[C@@](C)(O)C[C@@H]1CC[C@H]1[C@@H]3CC[C@H](C(=O)CN4CCOCC4)[C@@]3(C)CC[C@@H]12` [II-A9, 1-((3R,5S,8S,9S,10S,13S,14S,17S)-10-ethyl-3-hydroxy-3,13-dimethylhexadecahydro-1H-cyclopenta[a]phenanthren-17-yl)-2-morpholinoethan-1-one] and `CC[C@]12CC[C@@](C)(O)C[C@@H]1CC[C@H]1[C@@H]3CC[C@H](C(=O)CN4CCN(S(C)(=O)=O)CC4)[C@@]3(C)CC[C@@H]12` [II-A10, 1-((3R,5S,8S,9S,10S,13S,14S,17S)-10-ethyl-3-hydroxy-3,13-dimethylhexadecahydro-1H-cyclopenta [a]phenanthren-17-yl)-2-(4-(methylsulfonyl)piperazin-1-yl)ethan-1-one] fall in the same range of IC50: 10 to 100 nM for the first, 10 to 100 nM for the second.

First: CC[C@]12CC[C@](O)(COC)C[C@H]1CC[C@H]1[C@@H]3CC[C@H](C(=O)N4CCCC[C@@H]4C)[C@@]3(C)CC[C@@H]12 [II-B11, ((3R,5R,8S,9S,10S,13S,14S,17S)-10-ethyl-3-hydroxy-3-(methoxymethyl)-13-methylhexadecahydro-1H-cyclopenta[a]phenanthren-17-yl)((S)-2-methylpiperidin-1-yl)methanone]
Second: CCOC[C@@]1(O)CC[C@@]2(CC)[C@@H](CC[C@H]3[C@@H]4CC[C@H](C(=O)N5CCCC[C@@H]5C)[C@@]4(C)CC[C@@H]32)C1 [II-D11, ((3R,5S,8S,9S,10S,13S,14S,17S)-3-(ethoxymethyl)-10-ethyl-3-hydroxy-13-methylhexadecahydro-1H-cyclopenta[a]phenanthren-17-yl)((S)-2-methylpiperidin-1-yl)methanone]
The IC50 of the first is lower: 10 to 100 nM for the first, 100 to 1000 nM for the second. The first is the more potent here.

First: CCOC[C@@]1(O)CC[C@@]2(CC)[C@H](CC[C@H]3[C@@H]4CC[C@H](C(=O)Cn5cc(C#N)cn5)[C@@]4(C)CC[C@@H]32)C1 [II-C8, 1-(2-((3R,5R,8S,9S,10S,13S,14S,17S)-3-(ethoxymethyl)-10-ethyl-3-hydroxy-13-methylhexadecahydro-1H-cyclopenta[a]phenanthren-17-yl)-2-oxoethyl)-1H-pyrazole-4-carbonitrile]
Second: CCOC[C@@]1(O)CC[C@@]2(CC)[C@@H](CC[C@H]3[C@@H]4CC[C@H](C(C)=O)[C@@]4(C)CC[C@@H]32)C1 [II-D9]
The IC50 of the first is lower: less than 10 nM for the first, 10 to 100 nM for the second. The first is the more potent here.
